How the values were obtained:
[1] = Hygroscopicity / water sorption of crystalline hydrates versus relative humidity; type: physicochemical
human CaV1.2 [2] = target: T1, human CaV1.2 (Homo sapiens, UniProt Q13936); assay: Sophion QPatch dose-response assay, whole-cell voltage clamp of barium currents in CaV1.2-HEK293(AUX) cells; type: cell-based; conditions: Table 10 comparative examples; maximal fold change of peak inward current
T1 construct: expressed in transfected cells; host or cells: Flp-In 293 T-Rex (HEK293), monoclonal CaV1.2-HEK293(AUX) clone 2-19B; doxycycline-induced auxiliary subunits
T1 sequence (Q13936 1-2138 isoform Q13936-23): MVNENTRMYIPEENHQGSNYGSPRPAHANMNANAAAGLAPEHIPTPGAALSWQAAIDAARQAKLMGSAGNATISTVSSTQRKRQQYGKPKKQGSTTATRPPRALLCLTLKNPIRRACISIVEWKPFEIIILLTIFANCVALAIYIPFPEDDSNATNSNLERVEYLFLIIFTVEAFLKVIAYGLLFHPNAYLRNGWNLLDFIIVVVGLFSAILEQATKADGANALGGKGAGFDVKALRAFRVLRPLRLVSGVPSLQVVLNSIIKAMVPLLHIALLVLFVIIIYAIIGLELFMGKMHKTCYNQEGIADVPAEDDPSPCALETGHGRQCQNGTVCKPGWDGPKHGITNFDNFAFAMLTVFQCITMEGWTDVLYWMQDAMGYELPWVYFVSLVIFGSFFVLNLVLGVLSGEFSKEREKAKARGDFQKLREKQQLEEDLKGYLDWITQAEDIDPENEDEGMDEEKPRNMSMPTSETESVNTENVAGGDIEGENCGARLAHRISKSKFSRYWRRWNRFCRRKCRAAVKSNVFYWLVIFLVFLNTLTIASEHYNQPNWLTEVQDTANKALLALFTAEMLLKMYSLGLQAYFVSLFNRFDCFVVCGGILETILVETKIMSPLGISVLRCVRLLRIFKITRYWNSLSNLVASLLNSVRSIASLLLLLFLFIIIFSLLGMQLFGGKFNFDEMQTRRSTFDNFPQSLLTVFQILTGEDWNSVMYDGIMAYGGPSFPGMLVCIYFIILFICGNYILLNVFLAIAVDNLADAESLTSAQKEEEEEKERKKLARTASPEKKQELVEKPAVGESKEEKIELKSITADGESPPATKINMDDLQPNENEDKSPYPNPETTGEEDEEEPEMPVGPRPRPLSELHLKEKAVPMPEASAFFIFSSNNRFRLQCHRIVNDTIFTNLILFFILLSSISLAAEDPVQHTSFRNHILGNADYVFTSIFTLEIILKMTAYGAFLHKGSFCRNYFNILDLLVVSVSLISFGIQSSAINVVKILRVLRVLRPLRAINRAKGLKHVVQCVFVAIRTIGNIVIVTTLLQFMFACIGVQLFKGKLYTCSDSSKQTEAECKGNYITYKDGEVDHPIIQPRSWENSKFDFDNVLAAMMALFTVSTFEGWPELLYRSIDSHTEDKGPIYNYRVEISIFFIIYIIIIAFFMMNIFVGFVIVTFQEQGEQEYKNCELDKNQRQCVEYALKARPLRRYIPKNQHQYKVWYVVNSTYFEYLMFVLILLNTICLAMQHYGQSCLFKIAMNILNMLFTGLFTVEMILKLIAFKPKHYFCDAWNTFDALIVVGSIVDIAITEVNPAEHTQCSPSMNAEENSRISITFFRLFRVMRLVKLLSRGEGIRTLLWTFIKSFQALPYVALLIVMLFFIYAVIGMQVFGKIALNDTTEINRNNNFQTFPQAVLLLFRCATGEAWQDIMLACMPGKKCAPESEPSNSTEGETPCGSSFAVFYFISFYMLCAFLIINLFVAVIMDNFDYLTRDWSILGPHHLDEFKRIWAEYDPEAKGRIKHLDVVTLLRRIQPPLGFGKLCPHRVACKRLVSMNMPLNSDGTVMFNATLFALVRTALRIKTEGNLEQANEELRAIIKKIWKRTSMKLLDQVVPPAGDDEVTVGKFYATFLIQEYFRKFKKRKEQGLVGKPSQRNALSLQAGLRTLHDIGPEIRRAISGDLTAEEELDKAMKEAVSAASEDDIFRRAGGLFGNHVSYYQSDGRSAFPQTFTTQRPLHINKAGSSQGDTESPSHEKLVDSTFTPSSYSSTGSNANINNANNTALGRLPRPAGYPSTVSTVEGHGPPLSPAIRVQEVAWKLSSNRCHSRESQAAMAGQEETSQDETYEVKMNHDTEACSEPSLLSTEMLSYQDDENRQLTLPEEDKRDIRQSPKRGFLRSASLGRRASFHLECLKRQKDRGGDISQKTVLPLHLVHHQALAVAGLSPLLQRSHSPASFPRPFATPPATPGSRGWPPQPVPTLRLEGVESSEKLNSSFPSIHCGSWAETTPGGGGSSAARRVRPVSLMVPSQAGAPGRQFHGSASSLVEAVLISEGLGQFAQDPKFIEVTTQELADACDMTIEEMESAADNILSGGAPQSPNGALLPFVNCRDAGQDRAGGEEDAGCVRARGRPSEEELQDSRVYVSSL
T1 sequence (Q9NY47 19-1001 partner limits assumed): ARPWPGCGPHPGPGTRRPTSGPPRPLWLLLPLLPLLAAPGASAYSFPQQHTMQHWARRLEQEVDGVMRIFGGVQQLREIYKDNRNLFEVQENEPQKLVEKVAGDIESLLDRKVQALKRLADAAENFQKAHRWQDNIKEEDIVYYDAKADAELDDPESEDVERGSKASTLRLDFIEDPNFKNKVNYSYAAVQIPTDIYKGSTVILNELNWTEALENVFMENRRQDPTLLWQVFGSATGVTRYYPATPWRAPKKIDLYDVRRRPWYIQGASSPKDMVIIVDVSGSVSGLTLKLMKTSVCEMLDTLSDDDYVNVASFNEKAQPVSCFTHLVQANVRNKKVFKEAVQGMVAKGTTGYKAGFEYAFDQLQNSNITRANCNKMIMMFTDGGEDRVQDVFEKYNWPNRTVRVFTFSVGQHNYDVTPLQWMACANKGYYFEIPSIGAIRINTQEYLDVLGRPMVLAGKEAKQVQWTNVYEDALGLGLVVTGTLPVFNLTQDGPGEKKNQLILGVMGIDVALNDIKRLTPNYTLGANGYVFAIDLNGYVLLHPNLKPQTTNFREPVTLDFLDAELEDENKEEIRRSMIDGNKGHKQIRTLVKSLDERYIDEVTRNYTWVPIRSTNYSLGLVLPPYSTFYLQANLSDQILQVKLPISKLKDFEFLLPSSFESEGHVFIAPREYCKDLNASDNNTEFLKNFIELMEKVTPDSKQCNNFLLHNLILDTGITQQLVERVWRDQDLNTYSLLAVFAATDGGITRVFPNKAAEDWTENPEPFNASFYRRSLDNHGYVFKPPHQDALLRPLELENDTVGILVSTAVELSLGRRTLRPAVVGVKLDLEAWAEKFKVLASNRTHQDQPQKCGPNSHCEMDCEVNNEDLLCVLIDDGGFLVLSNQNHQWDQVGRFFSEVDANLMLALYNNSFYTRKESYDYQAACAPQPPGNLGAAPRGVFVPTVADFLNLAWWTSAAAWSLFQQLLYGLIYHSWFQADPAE
T1 sequence (Q9NY47 1002-1150 partner limits assumed): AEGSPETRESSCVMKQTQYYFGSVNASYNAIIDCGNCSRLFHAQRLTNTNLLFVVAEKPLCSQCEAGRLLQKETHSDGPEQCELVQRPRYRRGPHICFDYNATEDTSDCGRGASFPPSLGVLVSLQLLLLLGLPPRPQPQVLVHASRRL
T1 sequence (Q08289 whole entry partner): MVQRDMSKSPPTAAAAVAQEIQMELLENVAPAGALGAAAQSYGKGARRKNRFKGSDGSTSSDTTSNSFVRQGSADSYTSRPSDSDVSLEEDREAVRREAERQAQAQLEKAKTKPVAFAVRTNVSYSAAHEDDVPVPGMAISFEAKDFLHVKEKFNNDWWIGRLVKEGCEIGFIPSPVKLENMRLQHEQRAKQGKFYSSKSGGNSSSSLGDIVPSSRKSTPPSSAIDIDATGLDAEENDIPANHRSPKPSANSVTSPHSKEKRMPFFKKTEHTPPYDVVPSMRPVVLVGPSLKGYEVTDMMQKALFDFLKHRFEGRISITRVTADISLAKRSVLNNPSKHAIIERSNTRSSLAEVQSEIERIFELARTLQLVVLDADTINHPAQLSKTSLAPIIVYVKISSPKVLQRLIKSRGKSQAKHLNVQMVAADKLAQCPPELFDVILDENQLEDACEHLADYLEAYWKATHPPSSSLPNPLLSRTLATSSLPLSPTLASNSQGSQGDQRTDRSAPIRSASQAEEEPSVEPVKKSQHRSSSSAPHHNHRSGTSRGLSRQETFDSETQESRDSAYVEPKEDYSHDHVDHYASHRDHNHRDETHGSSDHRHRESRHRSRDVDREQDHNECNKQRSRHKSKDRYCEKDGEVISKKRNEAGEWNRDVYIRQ
From the text: (§1) The monoclonal CaV1.2-HEK293(AUX) cell line constitutively expresses human CaV1.2 alpha1C (α1C) subunit (CACNA1C) and has doxycycline-inducible expression of the alpha2delta (α2Δ2) auxiliary subunit (CACNA2D2) and beta2 (02) auxiliary subunit (CACNB2). To generate the cell line, expression vectors pcDNA5.0/FRT-TO-CACNA2D2-FCS-P2A-CACNB2 and pCMV6-entry-CACNA1C were established via gene synthesis and cloning. Here, pcDNA5.0/FRT-TO plasmid is from Invitrogen, pCMV6-entry is from Origene, FCS stands for Furin Cleavage Site, P2A is a peptide self-cleavage sequence derived from porcine teschovirus-1, and FRT is the Flippase recognition target site. Next, parental line Flp-In™ 293 T-Rex (Invitrogen) was transfected with pcDNA5.0/FRT-TO-CACNA2D2-FCS-P2A-CACNB2 and Flippase vector pOG44 (Invitrogen) to establish targeted integration of the CACNA2D2-FCS-P2A-CACNB2 expression cassette into the pre-engineered FRT site in Flp-In™ 293 T-Rex. This intermediate cell line was then transfected with pCMV6-entry-CACNA1C to establish stable CACNA1C expression. Clonal isolation was achieved under Neomycin selection.
Electrophysiological Characterization of CaV1.2 Activators Using CaV1.2-HEK293(AUX) Cell Line and QPatch
(§2) 24 hours prior an electrophysiology experiment, doxycycline (1 μg/ml) was added to the growth medium (Table 6), and 25 μM of verapamil was co-applied to prevent calcium influx triggered cell death. Cell confluency should reach 70%-80% right before the experiment. To harvest cells (from a T175 cm^2 flask as an example), growth media were removed completely, and the cells were rinsed with 10 mL of D-PBS. D-PBS was aspirated, and 10 mL of Detachin (Genlantis) was added and the plate was placed in a 37° C. incubator for 10 minutes. Detached cells were placed into a 15 mL conical tube and spun at 1000 rpm for 2 minutes. Supernatant was removed, and cells were re-suspended in QPatch complete media (Table 7) to desired cell density of 1.5-3 million cells per QPatch run. Each experimental run uses 1.5 mL of cells.
(§3) The cells suspension was taken to the Sophion QPatch platform that uses whole-cell voltage clamp to measure barium currents conducted through CaV1.2 on single-hole QPlates. Extracellular and intracellular patch clamp solutions are described in Tables 7 and 8, respectively. A dose-response assay protocol was used to determine the maximal fold change of peak inward current (Emax) and potency (EC50) of each compound. The protocol had eight liquid periods. The first liquid period was to stabilize current amplitude, which was monitored using repetitive 200-ms voltage pulses stepping from −80 mV to 0 mV. The second liquid period was to determine baseline current amplitude in the presence of vehicle control, using a single 20-ms voltage pulse stepping from −80 mV to 0 mV. The third through eighth liquid periods were used to ascertain a 6-dose response to compound treatments, also using single 20-ms voltage pulses stepping from −80 mV to 0 mV. The EC50 was generated using the following equation Iconcentration=Ibase+(Ifull−Ibase)*c^n/(XC50^n+c^n), where c is the concentration and n is the Hill coefficient constant. Ifull is the maximal current achievable, and Ibase is 0. A channel biophysics assay protocol was used to determine channel gating properties including current-voltage relationship (IV curves), half-way channel activation voltage (V1/2), rate of channel inactivation (tau), and amplitude of tail current. Among these, V1/2 was derived from fitting equation G(V)=Gvmin+(Gvmax−Gvmin)/(1+exp(−(V−V½)/Vslope)), where G stands for conductance, Gvmin equals 0, Gvmax is the maximal conductance, and Vslope is a slope factor. G(V) was pre-calculated from equation G(V)=I(V)/(V−0.06), for each experimentally applied depolarization potential (V) and the corresponding current amplitude (I(V)), and 0.06 in the equation was the experimentally determined reversal potential in volts. The protocol had four liquid periods.

human CaV1.2 [3] = target: T1, human CaV1.2; assay: QPatch channel biophysics assay (channel gating, V1/2 of activation, inactivation) in CaV1.2-HEK293(AUX) cells; type: cell-based; conditions: Table 10 comparative examples
From the text: as §1, with “selection. A cell clone (2-19B) with good voltage-dependent Barium current (see electrophysiology methods below) was selected for characterization of CaV1.2 activators.” for “selection.”
as §2
as §3, with “The protocol had four liquid periods.” left out

[4] = Compound exposure in wild-type mice (brain and blood levels); type: in vivo, C57BL/6J male mice; conditions: male, C57BL/6J, mouse, brain (cerebellum) / blood, intraperitoneal, Table 10 comparative examples; read-out: Brain:blood ratio
Description: Compound administration and brain tissue collection. Wild-type C57BL/6J male mice were obtained from Jackson laboratories (Bar Harbor, ME). The acute, single-dose effects of CaV1.2 activators of the present disclosure were evaluated in male eight-week old mice (n=6 mice per compound). Each compound was dissolved in 10% PEG300, 10% Solutol, 10% Cremophore EL, and 70% Phosphate Buffered Saline and administered intraperitoneal (i.p.) at a concentration of 1 mg/kg up to 30 mg/kg depending on the compound. Animals were euthanized one hour after compound administration via exsanguination under deep anesthesia. Blood was collected in EDTA tubes for downstream analysis of drug levels. Brains were rapidly removed from the skull, and the cerebral cortex and cerebellum were regionally dissected. Cerebellar samples were snap frozen in liquid nitrogen to assess compound exposure. Cortical samples for cFos assessment were placed in 500 μl of RNAlater solution (ThermoFisher) to preserve the integrity of RNA in the sample. Samples remained in RNAlater for at least 24 hours at 4° C. before moving to −80° C. for storage before processing.
Quantification of compound exposure. Cerebellar tissue samples were homogenized in 4 ml of 20% acetonitrile and 80% Phosphate buffered saline for every 1 g of tissue (5× dilution). Tissue was homogenized using either of the following three methods: hand held probe system, TissueLyser system with 5 mm steel bead at a frequency of 30 s^−1 for 4 min, or OMNI Bead Ruptor Elite homogenizer for 30 seconds to 1 minute depending on tissue type. Tissue samples were added to a 96-well plate (12.5 uL sample) and processed for quantification by mass spectrometry.

COC(=O)C1=C(CF)NC2=C(C(=O)OC2)[C@H]1c1cccc(F)c1[C@@H](C)F [Hydrate A, methyl (R)-4-(3-fluoro-2-((R)-1-fluoroethyl)phenyl)-2-(fluoromethyl)-5-oxo-1,4,5,7-tetrahydrofuro[3,4-b]pyridine-3-carboxylate]
hygroscopicity [1]: slightly hygroscopic | water uptake ([1]; between 10% to 95% RH at 25° C.): about 0.2%

CCOC(=O)C1=C(C)NC2=C(C(=O)OC2)[C@H]1c1ccccc1OC(F)F (single isomer, unassigned) [CGP028392, reference compound]
Qpatch Emax (human CaV1.2 [2]): 2.2 | Biophysics voltage shift (mV) (human CaV1.2 [3]): −6.7 mV | Kp at 1 h [4]: 0.23

COC(=O)C1=C(CF)NC2=C(C(=O)OC2)[C@H]1c1cccc(F)c1[C@@H](C)F [Hydrate B, methyl (R)-4-(3-fluoro-2-((R)-1-fluoroethyl)phenyl)-2-(fluoromethyl)-5-oxo-1,4,5,7-tetrahydrofuro[3,4-b]pyridine-3-carboxylate]
water uptake upon subsequent increase of the relative humidity ([1]; 25° C.): about 3% | loss of water on dehydration ([1]; starts below 20% RH, until 0% RH): about 4.4%
